Assay results: patent US20100105864A1, “PROPHYLACTIC OR THERAPEUTIC AGENT FOR DIARRHEA” (priority 2007, published 2010)

Target: T1, human calcium receptor (Homo sapiens, UniProt P41180)
T1 construct: expressed in transfected cells; host or cells: Xenopus laevis oocytes injected with cRNA
T1 sequence (P41180 20-1078): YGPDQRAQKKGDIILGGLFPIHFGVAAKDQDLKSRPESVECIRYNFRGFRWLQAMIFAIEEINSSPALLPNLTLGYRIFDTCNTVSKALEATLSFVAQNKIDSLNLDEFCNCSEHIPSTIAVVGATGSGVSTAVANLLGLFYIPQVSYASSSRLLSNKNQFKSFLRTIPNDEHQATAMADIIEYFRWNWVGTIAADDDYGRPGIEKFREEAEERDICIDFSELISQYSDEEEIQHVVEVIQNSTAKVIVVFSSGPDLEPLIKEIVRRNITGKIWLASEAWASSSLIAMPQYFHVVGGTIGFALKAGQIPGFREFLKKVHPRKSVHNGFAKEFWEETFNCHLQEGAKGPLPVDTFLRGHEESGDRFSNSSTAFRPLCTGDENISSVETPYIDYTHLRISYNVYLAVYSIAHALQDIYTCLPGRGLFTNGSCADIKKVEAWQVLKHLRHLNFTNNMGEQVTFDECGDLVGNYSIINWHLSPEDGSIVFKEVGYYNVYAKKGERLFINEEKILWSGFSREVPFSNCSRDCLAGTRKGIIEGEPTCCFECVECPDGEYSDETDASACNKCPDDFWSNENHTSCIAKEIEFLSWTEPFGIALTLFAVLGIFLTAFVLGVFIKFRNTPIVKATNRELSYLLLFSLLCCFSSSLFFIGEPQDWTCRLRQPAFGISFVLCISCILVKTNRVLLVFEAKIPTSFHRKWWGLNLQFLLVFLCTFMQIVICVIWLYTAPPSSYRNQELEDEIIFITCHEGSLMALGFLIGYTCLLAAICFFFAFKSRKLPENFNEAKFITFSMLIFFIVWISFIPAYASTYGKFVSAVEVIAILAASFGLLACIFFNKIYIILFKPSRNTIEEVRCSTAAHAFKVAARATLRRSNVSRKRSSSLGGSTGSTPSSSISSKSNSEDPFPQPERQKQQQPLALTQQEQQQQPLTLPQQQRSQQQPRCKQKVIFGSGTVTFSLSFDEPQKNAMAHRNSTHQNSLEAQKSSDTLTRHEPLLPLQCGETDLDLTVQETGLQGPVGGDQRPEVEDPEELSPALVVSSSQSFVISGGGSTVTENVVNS
Assay: Ca ion concentration-dependent Cl ionic current measurement in Xenopus laevis oocytes expressing the calcium receptor
Assay type: cell-based
Conditions: peptide added at 50 μM
Method: For evaluation of the calcium receptor-activating action, a Ca ion concentration-dependent Cl ionic current measuring method using a Xenopus laevis oocyte expression system was used. If each activator is added to Xenopus laevis oocytes expressing the calcium receptor, intracellular Ca ions increase. Then, the Ca ion concentration-dependent Cl channel opens, and the intracellular current value changes as an ionic current. By measuring the change in the intracellular current value, whether the calcium receptor-activating action is present or not can be determined.
Specifically, the abdomen of Xenopus laevis was opened, and an egg batch was taken out and then treated with a 1% collagenase solution at 20° C. for 2 hours to obtain individual oocytes. Into the oocytes, 50 nl of 1 μg/μl receptor cRNA or 50 nl of sterilized water per oocyte were injected by using a micro glass capillary, and the oocytes were cultured at 18° C. for 2 to 3 days. For the culture, a solution obtained by adding 2 mM pyruvic acid, 10 U/ml penicillin, and 10 μg/ml streptomycin to the solution in Example 2 was used. After the culture, a test solution was added to the oocytes injected with cRNA or sterilized water. Electrophysiological measurement was performed by using an amplifier Geneclamp 500 (manufactured by Axon) and recording software AxoScope 9.0 (manufactured by Axon). The oocytes were membrane potential-clamped at −70 mV by the double electrode potential clamp method, and the intracellular current was measured via the Ca ion concentration-dependent Cl ion channel. The maximum value of the intracellular current was defined as the response current value. […]
The calcium receptor-activating action of L-amino acids was evaluated by using the method described in Example 13. That is, oocytes injected with cRNA of the calcium receptor or sterilized water were prepared, and membrane potential-clamped at −70 mV by the double electrode potential clamp method. To the potential-clamped oocytes, alanine (10 mM), arginine (10 mM), asparagine (10 mM), aspartic acid (10 mM), cysteine (10 mM), glutamine (10 mM), glutamic acid (10 mM), glycine (10 mM), histidine (10 mM), isoleucine (10 mM), leucine (10 mM), lysine (10 mM), methionine (10 mM), phenylalanine (10 mM), proline (10 mM), serine (10 mM), threonine (10 mM), tryptophan (10 mM), tyrosine (10 mM), valine (10 mM), ornithine (10 mM), taurine (10 mM), or hydroxyproline (10 mM) was added, and Ca ion concentration-dependent Cl response current was measured. […] As for the above-described amino acids, the activating action is reported in Proc. Natl. Acad. Sci. USA, Apr. 25, 2000, 97(9): 4814-9.
The calcium receptor-activating action of D-cysteine was evaluated by using the method described in Example 13. That is, oocytes injected with cRNA of the calcium receptor or sterilized water were prepared, and membrane potential-clamped at −70 mV by the double electrode potential clamp method. To the potential-clamped oocytes, D-cysteine (10 mM), L-cysteine (10 mM), D-tryptophan (10 mM), or L-tryptophan (10 mM) was added, and Ca ion concentration-dependent Cl response current was measured.
The calcium receptor-activating action of a peptide was evaluated by using the method described in Example 13. That is, oocytes injected with cRNA of the calcium receptor or sterilized water were prepared, and membrane potential-clamped at −70 mV by the double electrode potential clamp method.

## N[C@@H](CCC(=O)N[C@@H](CS)C(=O)NCC(=O)O)C(=O)O [γ-Glu-Cys-Gly]
  calcium receptor-activating action (Ca ion concentration-dependent Cl response current): definite calcium receptor-activating action
